In patent US20250163119A1, “COMPOUNDS FOR THE TREATMENT OF DIABETES OR OBESITY” (Eli Lilly and Company, priority 2023, published 2025):
Values joined by “and” are separate entries in the source; they are usually repeats but may differ in a detail not shown here. Equal entries are not always repeated. Where two headings read alike, the source gives them in different places. One block for each compound: values may come before it. *1 amine or outer side, *2 acyl side, *3 side chain or, on linkers, in order; H or OH if unused. Where a SMILES comes first, the peptide text is derived from it. Bridges are numbered along the chain shown (N, C = ends). Roman numbers before positions name the chains, in order. Side-chain parts run from the residue outwards. [ ]: non-standard residue; d: D form. The star is where a group is joined. C20 diacid = O=C(O)CCCCCCCCCCCCCCCCCCC(=O)*; C18 diacid = O=C(O)CCCCCCCCCCCCCCCCC(=O)*; γGlu = O=C(O)[C@H](CCC(=O)[*:2])N[*:1]; εLys = N[C@@H](CCCCN[*:1])C(=O)[*:2]; pGlu = O=C1CC[C@@H](C(=O)O)N1; αMeL = CC(C)C[C@](C)(N)C(=O)O; AEEA = NCCOCCOCC(=O)O; Aib = CC(C)(N)C(=O)O

What was measured:
human CRHR1 = biological target: T1, human CRHR1 (Homo sapiens, UniProt P34998); experiment: Human CRHR1 cAMP assay (HTRF) in HEK293 cells stably expressing human CRHR1; format: cell-based; details: HEK293 cells overexpressing human CRHR1; relative EC50, maximum 66 nM human UCN1; mean ± SE; read-out: hCRHR1 cAMP EC50 (pM, ± SE)
T1 construct: expressed in transfected cells
T1 sequence (P34998 24-415): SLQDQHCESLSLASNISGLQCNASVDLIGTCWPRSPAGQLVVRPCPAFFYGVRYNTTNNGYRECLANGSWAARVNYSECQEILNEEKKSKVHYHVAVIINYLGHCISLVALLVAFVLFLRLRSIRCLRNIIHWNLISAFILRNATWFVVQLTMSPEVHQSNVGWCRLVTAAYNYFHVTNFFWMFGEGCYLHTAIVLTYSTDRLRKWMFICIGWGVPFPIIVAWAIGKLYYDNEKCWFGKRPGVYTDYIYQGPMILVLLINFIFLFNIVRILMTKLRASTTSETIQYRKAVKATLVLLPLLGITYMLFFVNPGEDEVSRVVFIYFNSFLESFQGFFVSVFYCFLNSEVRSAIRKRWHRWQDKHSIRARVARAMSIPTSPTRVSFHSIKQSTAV
In short: (§1)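 Stably expressing HEK293 clones received peptide concentration series in phosphodiesterase-inhibited buffer (0.25 mM IBMX, pH 7.4). After receptor-specific incubation (CRHR1 1 h at 37° C; CRHR2 30 min at room temperature), cells were lysed with HTRF cAMP reagents for 60 min and the 665/620 nm ratio recorded.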

[1] = Pharmacokinetics in Sprague Dawley rats, single subcutaneous or intravenous dose (incl. 10, 30, 100 nmol/kg dose response); format: in vivo
human CRHR2 = biological target: T2, human CRHR2 (Homo sapiens, UniProt Q13324); experiment: Human CRHR2 cAMP assay (HTRF) in HEK293 cells stably expressing human CRHR2; format: cell-based; details: HEK293 cells overexpressing human CRHR2; relative EC50, maximum 10 nM human UCN2; mean ± SE; read-out: hCRHR2 cAMP EC50 (pM, ± SE)
T2 construct: expressed in transfected cells
T2 sequence (Q13324 1-438 isoform Q13324-2): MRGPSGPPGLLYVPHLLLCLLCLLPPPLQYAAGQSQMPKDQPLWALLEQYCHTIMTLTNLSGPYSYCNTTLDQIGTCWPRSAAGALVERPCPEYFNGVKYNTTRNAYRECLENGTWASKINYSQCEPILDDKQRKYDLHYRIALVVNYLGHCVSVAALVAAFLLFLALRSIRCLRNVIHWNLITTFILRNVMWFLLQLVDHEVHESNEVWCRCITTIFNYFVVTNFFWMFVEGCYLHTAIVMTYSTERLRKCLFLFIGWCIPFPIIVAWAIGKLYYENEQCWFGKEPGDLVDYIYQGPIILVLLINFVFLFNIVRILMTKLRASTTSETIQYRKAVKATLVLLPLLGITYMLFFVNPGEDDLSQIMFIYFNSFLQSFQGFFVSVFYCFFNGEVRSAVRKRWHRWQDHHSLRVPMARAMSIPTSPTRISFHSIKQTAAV
In short: as §1

[2] = male, Sprague Dawley, rat, plasma, iv, 196 nmol/kg, single intravenous dose 196 nmol/kg, individual animal
[3] = male, Sprague Dawley, rat, plasma, iv, 196 nmol/kg, single intravenous dose 196 nmol/kg, mean
[4] = single intravenous dose 196 nmol/kg, male Sprague Dawley rats, individual animal
[5] = single subcutaneous dose 196 nmol/kg, male Sprague Dawley rats, individual animal

Compound: H-GSPSIVTS[αMeL]DVPT[Aib][αMeL]LQKILEQERAEKARQQATEAAEILAQV-NH2 [SEQ ID NO: 27]
EC50 (human CRHR1): > 1e+07 pM
EC50 (human CRHR2): 23.6 ± 2.9 pM

Compound: I: Ac-GSPSIVTS[αMeL]DVPT[Aib][αMeL]LQKILEQERAEKARQQAKEAAEILAQV-NH2 / II: {C20 diacid-γGlu}-EKEKEK[AEEA] (amide I:33-II:C) [SEQ ID NO: 9, Ac-GSPSIVTS αMeL DVPT Aib αMeL LQKILEQERAEKARQQAK((2-[2-(2-Amino-ethoxy)-ethoxy]-acetyl)-KEKEKE-γE-CO-(CH2)18-CO2H)EAAEILAQV-NH2]
EC50 (human CRHR1): > 1e+07 pM
EC50 (human CRHR2): 15.5 ± 3.3 pM

Compound: I: Ac-GSPSIVTS[αMeL]DVPT[Aib][αMeL]LQKILEQERAEKARQQAKEAAEILAQV-NH2 / II: {C20 diacid}-EPEPEP[γGlu] (amide I:33-II:C) [SEQ ID NO: 16, Ac-GSPSIVTS αMeL DVPT Aib αMeL LQKILEQERAEKARQQAK(γE-PEPEPE-CO-(CH2)18-CO2H)EAAEILAQV-NH2]
EC50 (human CRHR1): > 1e+07 pM
EC50 (human CRHR2): 12.5 ± 1.1 pM

Compound: I: Ac-GSPSIVTS[αMeL]DVPT[Aib][αMeL]LQKILEQERAEKARQQAKEAAEILAQV-NH2 / II: {C20 diacid}-PPPPPP[γGlu] (amide I:33-II:C) [SEQ ID NO: 15, Ac-GSPSIVTS αMeL DVPT Aib αMeL LQKILEQERAEKARQQAK(γE-PPPPPP-CO-(CH2)18-CO2H)EAAEILAQV-NH2]
EC50 (human CRHR1): > 1e+07 pM
EC50 (human CRHR2): 11.3 ± 0.4 pM

Compound: [pGlu]GSPSGIVTS[αMeL]DVPT[Aib][αMeL]LQKILEQERAEKARQQAK([γGlu-AEEA-εLys-C18 diacid])EAAEILAQV-NH2 [SEQ ID NO: 24, Pyr-GSPSGIVTS αMeL DVPT Aib αMeL LQKILEQERAEKARQQAK(γE-(2-[2-(2-Amino-ethoxy)-ethoxy]-acetyl)-ϵK-CO-(CH2)16-CO2H)EAAEILAQV-NH2]
EC50 (human CRHR1): > 1e+07 pM
EC50 (human CRHR2): 21.7 ± 3.6 pM

Compound: [pGlu]GSPSGIVTS[αMeL]DVPT[Aib][αMeL]LQKILEQERAEKARQQAKEAAEILAQV-NH2 [SEQ ID NO: 23]
EC50 (human CRHR1): > 1e+07 pM
EC50 (human CRHR2): 28.9 ± 1.2 pM

Compound: {C18 diacid-εLys-AEEA-γGlu}-GSPSIVTS[αMeL]DVPT[Aib][αMeL]LQKILEQERAEKARQQATEAAEILAQV-NH2 [SEQ ID NO: 28]
EC50 (human CRHR1): > 1e+07 pM
EC50 (human CRHR2): 12.8 ± 2 pM

Compound: {C20 diacid}-K[AEEA][γGlu]GSPSIVTS[αMeL]DVPT[Aib][αMeL]LQKILEQERAEKARQQATEAAEILAQV-NH2 [SEQ ID NO: 26]
EC50 (human CRHR1): > 1e+07 pM
EC50 (human CRHR2): 6.9 ± 0.7 pM

More lines, main results first:

EC50 (human CRHR1): 2.3e+06 pM
clearance [1, 2]: 2.4 mL/h/kg
half-life [1, 2]: 36.1 h
clearance [1, 3]: 2.43 mL/h/kg
half-life [1, 3]: 39.3 h
half-life ([1]; male, Sprague Dawley, rat, plasma, sc, 196 nmol/kg, single subcutaneous dose 196 nmol/kg, individual animal): 33.2 h
CL/F ([1]; male, Sprague Dawley, rat, plasma, sc, 196 nmol/kg, single subcutaneous dose 196 nmol/kg, individual animal, read-out: CL/F (converted)): 5.41 mL/h/kg
Tmax ([1]; male, Sprague Dawley, rat, plasma, sc, 196 nmol/kg, single subcutaneous dose 196 nmol/kg, individual animal, read-out: Tmax): 48 h
half-life ([1]; male, Sprague Dawley, rat, plasma, sc, 196 nmol/kg, single subcutaneous dose 196 nmol/kg, mean): 42.2 h
CL/F ([1]; male, Sprague Dawley, rat, plasma, sc, 196 nmol/kg, single subcutaneous dose 196 nmol/kg, mean, read-out: CL/F (converted)): 4.85 mL/h/kg
Tmax ([1]; male, Sprague Dawley, rat, plasma, sc, 196 nmol/kg, single subcutaneous dose 196 nmol/kg, mean, read-out: Tmax): 40 h
AUC0-inf ([1]; rat, plasma, sc, single subcutaneous dose 196 nmol/kg, male Sprague Dawley rats, mean, read-out: AUC0-inf): 44.3 µM·h
Cmax ([1]; rat, plasma, sc, single subcutaneous dose 196 nmol/kg, male Sprague Dawley rats, mean, read-out: Cmax): 473 nM
AUC0-inf ([1]; rat, plasma, single intravenous dose 196 nmol/kg, male Sprague Dawley rats, mean, read-out: AUC0-inf): 80.6 µM·h
C0 ([1]; rat, plasma, single intravenous dose 196 nmol/kg, male Sprague Dawley rats, mean, read-out: C0): 2420 nM
CL [1, 4]: 2.51 mL/h/kg and 2.37 mL/h/kg
T1/2 [1, 4]: 35.8 h and 46.0 h
CL/F [1, 5]: 4.80 mL/h/kg and 4.35 mL/h/kg
T1/2 [1, 5]: 39.1 h and 54.2 h
Tmax [1, 5]: 24 h
EC50 (human CRHR2): 6.6 ± 0.8 pM
Compound: CC[C@H](C)[C@H](NC(C)=O)C(=O)N[C@H](C(=O)N[C@H](C(=O)N[C@@H](CO)C(=O)N[C@@](C)(CC(C)C)C(=O)N[C@@H](CC(=O)O)C(=O)N[C@@H](C(=O)N1CCC[C@H]1C(=O)N[C@H](C(=O)NC(C)(C)C(=O)N[C@@](C)(CC(C)C)C(=O)N[C@@H](CC(C)C)C(=O)N[C@@H](CCC(N)=O)C(=O)N[C@H](C(=O)N[C@@H](CCCCN)C(=O)N[C@@H](CC(C)C)C(=O)N[C@@H](CCC(=O)O)C(=O)N[C@@H](CCC(N)=O)C(=O)N[C@@H](CCC(=O)O)C(=O)N[C@@H](CCCNC(=N)N)C(=O)N[C@@H](C)C(=O)N[C@@H](CCC(=O)O)C(=O)N[C@@H](CCCCN)C(=O)N[C@@H](C)C(=O)N[C@@H](CCCNC(=N)N)C(=O)N[C@@H](CCC(N)=O)C(=O)N[C@@H](CCC(N)=O)C(=O)N[C@@H](C)C(=O)N[C@@H](CCCCNC(=O)COCCOCCNC(=O)COCCOCCNC(=O)CC[C@H](NC(=O)CCCCCCCCCCCCCCCCCCC(=O)O)C(=O)O)C(=O)N[C@@H](CCC(=O)O)C(=O)N[C@@H](CC(N)=O)C(=O)N[C@H](C(=O)N[C@@H](CCC(=O)O)C(=O)N[C@H](C(=O)N[C@@H](CC(C)C)C(=O)N[C@@H](C)C(=O)N[C@@H](CCC(N)=O)C(=O)N[C@H](C(N)=O)C(C)C)[C@@H](C)CC)[C@@H](C)O)[C@@H](C)CC)[C@@H](C)CC)C(C)C)[C@@H](C)O)C(C)C [SEQ ID NO: 42, Ac-IVTS αMeL D (D-Val) PI Aib αMeL LQIKLEQERAEKARQQAK((2-[2-(2-Amino-ethoxy)-ethoxy]-acetyl)2-γE-CO-(CH2)18-CO2H)ENTEILAQV-NH2] (Ac-IVTS[αMeL]D[dV]PI[Aib][αMeL]LQIKLEQERAEKARQQAK([AEEA-AEEA-γGlu-C20 diacid])ENTEILAQV-NH2)
AUC0-inf [1, 4]: 81.5 µM·h and 77.9 µM·h and 82.5 µM·h
C0 [1, 4]: 2760 nM and 2250 nM and 2260 nM
AUC0-inf [1, 5]: 38.1 µM·h and 43.2 µM·h and 51.5 µM·h
Cmax [1, 5]: 399 nM and 559 nM and 460 nM

EC50 (human CRHR1): > 1e+07 pM
EC50 (human CRHR2): 15.3 ± 1.4 pM
Compound: Ac-GSPSIVTS[αMeL]DVPT[Aib][αMeL]LQKILEQERAEKARQQAKEAAEILAQV-NH2 [SEQ ID NO: 20]

EC50 (human CRHR1): 2.3e+06 pM
EC50 (human CRHR2): 17.5 ± 2.2 pM
Compound: Ac-PPPIVTS[αMeL]D[dV]PT[Aib][αMeL]LQKLLEQERAEKARQQAK([γGlu-AEEA-εLys-C20 diacid])EAAEILAQV-NH2 [SEQ ID NO: 47, Ac-PPPIVTS αMeL D (D-Val) PT Aib αMeL LQKLLEQERAEKARQQAK(γE-(2-[2-(2-Amino-ethoxy)-ethoxy]-acetyl)-ϵK-CO-(CH2)18-CO2H)EAAEILAQV-NH2]

EC50 (human CRHR1): > 1e+07 pM
EC50 (human CRHR2): 13 ± 1.1 pM
Compound: Ac-PPPIVTS[αMeL]D[dV]PT[Aib][αMeL]LQK[Aib]LEQERAEKARQQAK([γGlu-AEEA-εLys-C20 diacid])ENTEILAQV-NH2 [SEQ ID NO: 46, Ac-PPPIVTS αMeL D (D-Val) PT Aib αMeL LQK Aib LEQERAEKARQQAK(γE-(2-[2-(2-Amino-ethoxy)-ethoxy]-acetyl)-ϵK-CO-(CH2)18-CO2H)ENTEILAQV-NH2]
